For the first assay, the target named is hA2a receptors (Homo sapiens (Human), UniProt P29274). As to the kind of experiment: Adenosine A2a receptor subtype competition radioligand binding assay. Conditions: membranes from hA2a receptors transfected to HeLa cells, [3H]ZM241385 as radioligand, Cheng-Prusoff. The method, then: Pharmacological Activity Adenosine A2a Receptor Subtype Competition Radioligand Binding Assay
Chain of hA2a receptors (P29274 whole entry): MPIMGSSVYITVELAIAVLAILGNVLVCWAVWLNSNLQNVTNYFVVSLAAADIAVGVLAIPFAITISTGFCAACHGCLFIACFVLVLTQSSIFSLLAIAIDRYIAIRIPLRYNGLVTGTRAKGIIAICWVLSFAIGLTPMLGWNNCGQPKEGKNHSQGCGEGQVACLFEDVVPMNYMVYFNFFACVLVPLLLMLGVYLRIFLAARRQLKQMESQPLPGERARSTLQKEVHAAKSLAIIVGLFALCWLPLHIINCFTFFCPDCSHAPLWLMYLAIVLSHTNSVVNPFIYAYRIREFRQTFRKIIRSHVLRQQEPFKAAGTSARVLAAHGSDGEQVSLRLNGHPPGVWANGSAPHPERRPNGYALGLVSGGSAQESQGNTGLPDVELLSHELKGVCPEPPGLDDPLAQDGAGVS
Human membranes from recombinant adenosine receptors were purchased from Receptor Biology, Inc. (USA)
Competition assays were carried out by incubation of membranes from hA2a receptors transfected to HeLa cells, [^3H]ZM241385 as radioligand, buffer (50 mM Tris-HCl (pH=7.4), 10 mM MgCl2, 1 mM EDTA, 2 units/ml adenosine deaminase), and unlabelled ligand in a total volume of 0.2 ml for 30 min at 25° C. NECA was used to determinate non-specific binding. Filter over Schleicher&Schuell GF/52 filters (pre-soaked 0.5% polyethylenimine) in a Brandel cell harvester. Unbound radioligand was removed with 3×250 μl ice-cold 50 mM Tris-HCl (pH=7.4), 10 mM MgCl and 1 mM EDTA.
(§1) Concentration-response binding competition curves were carried out by assaying 6 different concentrations (range between 10 nm to 100 μM). […] IC50 values were obtained by fitting the data with non-linear regression, with Prism 2.1 software (GraphPad, San Diego, Calif.). Cyclic Adenosine Monophosphate Production Measurement.
Chain of A2a adenosine receptor (P29274 whole entry): as above
The Ki is a dissociation constant, usually derived from enzyme kinetics or from competition with a known ligand. Low values mean a stronger hold on the target, high ones a looser hold on the target. `Nc1nc(-n2cccn2)nc(N2CCCC2)c1Br` [Example 3, 5-bromo-2-(1H-pyrazol-1-yl)-6-(pyrrolidin-1-yl)pyrimidin-4-amine] had a Ki of 11 nM.

`Nc1nc(-n2cccn2)nc(NC2CCCC2)c1Br` [Example 4, 5-bromo-N^4-cyclopentyl-2-(1H-pyrazol-1-yl)pyrimidine-4,6-diamine]: affinity was put at a Ki of 6 nM. Molecule `Nc1nc(-n2cccn2)nc(N2CCCCC2)c1Br` [Example 5, 5-bromo-6-(piperidin-1-yl)-2-(1H-pyrazol-1-yl)pyrimidin-4-amine] yielded a Ki of 14 nM.

`Nc1nc(-n2cccn2)nc(NC2CC2)c1Br` [Example 8, 5-bromo-N^4-cyclopropyl-2-(1H-pyrazol-1-yl)pyrimidine-4,6-diamine] had a Ki of 18 nM.

In the case of `Nc1nc(-n2cccn2)nc(N2CCC2)c1Br` [Example 9, 6-(azetidin-1-yl)-5-bromo-2-(1H-pyrazol-1-yl)pyrimidin-4-amine], the inhibitory constant (Ki) was 33 nM. Same read-out and setting: the value for `Nc1nc(-n2cccn2)nc(NC2CCC2)c1Br` [Example 10, 5-bromo-N^4-cyclobutyl-2-(1H-pyrazol-1-yl)pyrimidine-4,6-diamine] was 21 nM; that for `CN(C)c1nc(-n2cccn2)nc(N)c1Br` [Example 13, 5-bromo-N^4,N^4-dimethyl-2-(1H-pyrazol-1-yl)pyrimidine-4,6-diamine] was 35 nM. On the same count and under the same terms, as for `COC[C@H]1CCCN1c1nc(-n2cccn2)nc(N)c1Br` [Example 20, 5-bromo-6-((R)-2-(methoxymethyl)pyrrolidin-1-yl)-2-(1H-pyrazol-1-yl)pyrimidin-4-amine], the figure is 14 nM; as for `CNc1nc(-n2cccn2)nc(N)c1Br` [Example 24, 5-bromo-N^4-methyl-2-(1H-pyrazol-1-yl)pyrimidine-4,6-diamine], 16 nM. Same read-out and setting: the value for `Nc1nc(-n2cccn2)nc(NCC2CC2)c1Br` [Example 29, 5-bromo-N^4-(cyclopropylmethyl)-2-(1H-pyrazol-1-yl)pyrimidine-4,6-diamine] was 10 nM.

Consider `CCSc1nc(-n2cccn2)nc(N)c1Br` [Example 36, 5-bromo-6-(ethylthio)-2-(1H-pyrazol-1-yl)pyrimidin-4-amine], for which the affinity corresponds to a Ki of 8 nM.

`CC(C)Sc1nc(-n2cccn2)nc(N)c1Br` [Example 38, 5-bromo-6-(isopropylthio)-2-(1H-pyrazol-1-yl)pyrimidin-4-amine] displayed an inhibition constant (Ki) of 7 nM.

As for `Nc1nc(-n2cccn2)nc(OCC(F)(F)F)c1Br` [Example 44, 6-(2,2,2-trifluoroethoxy)-5-bromo-2-(1H-pyrazol-1-yl)pyrimidin-4-amine], the affinity corresponds to a Ki of 14 nM.

Molecule `Nc1nc(-n2cccn2)nc(-n2cccn2)c1Cl` [Example 46, 5-chloro-2,6-di-(1H-pyrazol-1-yl)pyrimidine-4-amine] returned a Ki of 17 nM. On the same count and under the same terms, as for `N#Cc1c(N)nc(-n2cccn2)nc1-n1cccn1` [Example 48, 4-amino-2,6-di-(1H-pyrazol-1-yl)pyrimidine-5-carbonitrile], the figure is 7 nM. With `Nc1nc(-c2nccs2)nc(-c2nccs2)c1Br` [Example 93, 5-Bromo-2,6-di(thiazol-2-yl)pyrimidin-4-amine], the inhibition constant Ki came to 1 nM.

The target in another assay is A2a adenosine receptor (Homo sapiens (Human), UniProt P29274). As to the kind of experiment: Cyclic adenosine monophosphate (cAMP) production measurement in CHO-A2A cells. The assay is classed as cell-based. The settings on record: 1 μM NECA, 30 μM rolipram, cAMP enzymeimmunoassay. The method, then:
as §1
These assays were performed at adenosine receptors transfected using a cAMP enzymeimmunoassay kit (Amersham Biosciences). CHO-A2A cells were seeded (10000 cells/well) in 96-well culture plates and incubated at 37° C. in an atmosphere with 5% CO2 in Dulbecco's Modified Eagle's Medium Nutrient Mixture F-12 (DMEM F-12), containing 10% Foetal Calf Serum (FCS) and 1% L-Glutamine. Cells were washed 3× with 200 μl assay medium (DMEM-F12 and 25 mM HEPES pH=7.4) and pre-incubated with assay medium containing 30 μM rolipram and test compounds at 37° C. for 15 min. 1 μM NECA was incubated for 15 min at 37° C. (total incubation time 30 min). Reaction was stopped with lysis buffer supplied in the kit and the enzymeimmunoassay was carried out for detection of intracellular cAMP at 450 nm in an Ultra Evolution detector (Tecan). Data were fitted by non-linear regression using GraphPad Prism v2.01 (GraphPad Software).
The molecule `Nc1nc(-n2cccn2)nc(NC2CC2)c1Br` [Example 8, 5-bromo-N^4-cyclopropyl-2-(1H-pyrazol-1-yl)pyrimidine-4,6-diamine] came in with an inhibitory constant (Ki) of 60 nM. Same read-out and setting: as for `CN(C)c1nc(-n2cccn2)nc(N)c1Br` [Example 13, 5-bromo-N^4,N^4-dimethyl-2-(1H-pyrazol-1-yl)pyrimidine-4,6-diamine], the figure is 50 nM; as for `Nc1nc(-c2nccs2)nc(-c2nccs2)c1Br` [Example 93, 5-Bromo-2,6-di(thiazol-2-yl)pyrimidin-4-amine], 12 nM.

The values are drawn from patent publication US8796284B2, “4-aminopyrimidine derivatives and their as as adenosine A2a receptor antagonists” (Palobiofarma, S.L., priority 2010, dated 2014).
